Measurements from patent US8263046B2, “N-phenyl-N-pyridinyl-benzamides and benzenesulfonomides having cooling properties” (Givaudan S.A., priority 2005, dated 2012).

What follows are molecules tested on panelists (assay: Experiments on cooling properties/intensities: panelists taste aqueous solutions). Settings: aqueous solution with cooling intensity similar or slightly higher than that of a solution of I-menthol at 2 ppm.
Assay type: in vivo
`COc1ccc(C(=O)N(CCc2ccccn2)c2ccccc2)cc1` [Example 1, 4-Methoxy-N-phenyl-N-[2-(pyridin-2-yl)ethyl]benzamide] gave a Concentration of 1.5 ppm. Molecule `COc1ccc(S(=O)(=O)N(CCc2ccccn2)c2ccccc2)cc1` [Example 2, 4-Methoxy-N-phenyl-N-[2-(pyridin-2-yl)ethyl]benzenesulfonamide] has a Concentration of 2 ppm. `O=S(=O)(c1ccc(Cl)cc1)N(CCc1ccccn1)c1ccccc1` [Example 3a, 4-Chloro-N-phenyl-N-[2-(pyridin-2-yl)ethyl]benzenesulfonamide] was tested, and the Concentration was 2 ppm. With `CCNC(=O)C1CC(C)CCC1C(C)C` (stereo not shown) [WS-3, N-ethyl p-menthanecarboxamide, reference compound] the Concentration was 1.5 ppm.
